{
  "source": "patent US12171230B2",
  "about": "“Herbicidal compositions” (Bayer Aktiengesellschaft, priority 2018, dated 2024)",
  "format_in_all_cases": "in vivo",
  "key": {"Eleusine indica": {"system": "Eleusine indica", "assay": "Post-emergence herbicidal action against Eleusine indica", "conditions": "(Z3) post-emergence, g of a.i./ha: 270, 90, 15, 5, 5 + 270, 15 + 90", "source_text": "(§1) The following abbreviations are used in the description and the tables that follow: • g of a.i./ha=grams of active substance (active ingredient) (=100% active compound) per hectare; • The sum total of the effects of the individual applications is reported under E^A; • expected values according to Colby are each reported under E^C.\n(§2) The rating period is reported in days after application (DAT)."}, "Matricaria inodora": {"system": "Matricaria inodora", "assay": "Post-emergence herbicidal action against Matricaria inodora"}, "Viola tricolor": {"system": "Viola tricolor", "assay": "Post-emergence herbicidal action against Viola tricolor", "source_text": "as §1, §2"}, "Phalaris minor": {"system": "Phalaris minor", "assay": "Post-emergence herbicidal action against Phalaris minor", "method_in_brief": "(§3)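 Colby-derived expected values (E^C) and the summed effects of the separate applications (E^A) accompany each rating. Active substance was dosed in grams per hectare on a 100% active-compound basis, with the rating period given as DAT.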"}, "Brachiaria plantaginea": {"system": "Brachiaria plantaginea", "assay": "Post-emergence herbicidal action against Brachiaria plantaginea", "conditions": "(Z61) post-emergence; g of a.i./ha: 200, 100, 100 + 200", "source_text": "as §1, §2"}, "Setaria viridis": {"system": "Setaria viridis", "assay": "Post-emergence herbicidal action against Setaria viridis", "conditions": "21 DAT", "experimental": "When the observed efficacies exceed the formal sum total of the values of the tests with individual applications, they also exceed the expected value according to Colby, which is calculated using the formula below and is likewise regarded as an indication of synergism (cf. S. R. Colby; in Weeds 15 (1967) p. 20 to 22): E^C=A+B−([…])\nHere: • A=efficacy of the active compound (A) in % at an application rate of a g a.i./ha; • B=efficacy of the active compound (B) in % at an application rate of b g a.i./ha; • E^C=expected value of the effect of the combination (A)+(B) in % at the combined application rate a+b g a.i./ha.\nSeeds or rhizome pieces of mono- and dicotyledonous weeds are placed in sandy loam in pots, covered with soil and grown in a greenhouse under good growth conditions (temperature, air humidity, water supply). Three weeks after sowing, the test plants were treated at the three-leaf stage with the compositions according to the invention. The compositions according to the invention formulated as spray powders or as emulsion concentrates were sprayed onto the green plant parts in various dosages with an application rate of 300 to 800 l/ha of water (equivalent). After the test plants have been left to stand in the greenhouse under optimal growth conditions for about 3 to 4 weeks, the action of the preparations is scored visually in comparison to untreated controls. The compositions according to the invention also have good post-emergence herbicidal activity against a broad spectrum of economically important gramineous and broadleaf weeds."}, "Bromus sterilis": {"system": "Bromus sterilis", "assay": "Post-emergence herbicidal action against Bromus sterilis", "method_in_brief": "as §3"}},
  "data": [
    {"smiles": "O=C(Nc1ccc(F)cc1F)c1cccnc1Oc1cccc(C(F)(F)F)c1", "note": "[(B2.18) Diflufenican]", "values": [
      {"measurement": "Herbicidal action 21 DAT against Eleusine indica", "setting": "Eleusine indica; 90 g of a.i./ha", "value": 20, "unit": "%"},
      {"measurement": "Herbicidal action 21 DAT against Eleusine indica", "setting": "Eleusine indica; 270 g of a.i./ha", "value": 30, "unit": "%"},
      {"measurement": "Herbicidal action 14 DAT against Matricaria inodora", "setting": "Matricaria inodora; 90 g of a.i./ha", "value": 50, "unit": "%"},
      {"measurement": "Herbicidal action 28 DAT against Matricaria inodora", "setting": "Matricaria inodora; (Z61) post-emergence, g of a.i./ha: 4, 1, 30, 4 + 30, 1 + 30", "value": 0, "unit": "%"},
      {"measurement": "Herbicidal action 28 DAT against Matricaria inodora", "setting": "Matricaria inodora; (Z119) post-emergence, g of a.i./ha by row: 16, 4, 270, 90, 16 + 270, 4 + 90", "value": 50, "unit": "%"},
      {"measurement": "Herbicidal action 28 DAT against Viola tricolor", "setting": "Viola tricolor; (Z61) post-emergence, g of a.i./ha: 16, 1, 30, 16 + 30, 1 + 30", "value": 40, "unit": "%"},
      {"measurement": "Herbicidal action 14 DAT against Viola tricolor", "setting": "Viola tricolor; (Z119) post-emergence, g of a.i./ha: 16, 270, 16 + 270", "value": 40, "unit": "%"},
      {"measurement": "Herbicidal action 28 DAT against Phalaris minor", "setting": "Phalaris minor; 30 g of a.i./ha", "value": 0, "unit": "%"},
      {"measurement": "Herbicidal action 28 DAT against Phalaris minor", "setting": "Phalaris minor; 90 g of a.i./ha", "value": 0, "unit": "%"},
      {"measurement": "Herbicidal action 28 DAT against Phalaris minor", "setting": "Phalaris minor; 270 g of a.i./ha", "value": 5, "unit": "%"},
      {"measurement": "Herbicidal action 28 DAT against Phalaris minor", "setting": "Phalaris minor; (Z119) post-emergence, g of a.i./ha: 16, 4, 270, 90, 30, 16 + 270, 16 + 90, 16 + 30, 4 + 270, 4 + 30, 90 g of a.i./ha", "value": 0, "unit": "%"},
      {"measurement": "Herbicidal action 28 DAT against Phalaris minor", "setting": "Phalaris minor; (Z119) post-emergence, g of a.i./ha: 16, 4, 270, 90, 30, 16 + 270, 16 + 90, 16 + 30, 4 + 270, 4 + 30, 270 g of a.i./ha", "value": 5, "unit": "%"},
      {"measurement": "Herbicidal action 14 DAT against Phalaris minor", "setting": "Phalaris minor; (Z119) post-emergence, g of a.i./ha: 16, 4, 270, 90, 270, 16 + 270, 16 + 90, 4 + 270", "value": 5, "unit": "%"},
      {"measurement": "Herbicidal action 28 DAT against Brachiaria plantaginea", "setting": "Brachiaria plantaginea", "value": 0, "unit": "%"},
      {"measurement": "Herbicidal action against Setaria viridis", "setting": "Setaria viridis; 30 g of a.i./ha", "value": 10, "unit": "%"},
      {"measurement": "Herbicidal action against Setaria viridis", "setting": "Setaria viridis; 90 g of a.i./ha", "value": 10, "unit": "%"},
      {"measurement": "Herbicidal action against Setaria viridis", "setting": "Setaria viridis; 270 g of a.i./ha", "value": 15, "unit": "%"},
      {"measurement": "Herbicidal action 14 DAT against Bromus sterilis", "setting": "Bromus sterilis; (Z61) post-emergence, g of a.i./ha by row: 4, 1, 270, 90, 4 + 270, 1 + 270, 1 + 90, 90 g of a.i./ha", "value": 10, "unit": "%"},
      {"measurement": "Herbicidal action 14 DAT against Bromus sterilis", "setting": "Bromus sterilis; (Z61) post-emergence, g of a.i./ha by row: 4, 1, 270, 90, 4 + 270, 1 + 270, 1 + 90, 270 g of a.i./ha", "value": 15, "unit": "%"},
      {"measurement": "Herbicidal action 28 DAT against Bromus sterilis", "setting": "Bromus sterilis; (Z61) post-emergence, g of a.i./ha: 1, 270, 90, 1 + 270, 1 + 90, 90 g of a.i./ha", "value": 15, "unit": "%"},
      {"measurement": "Herbicidal action 28 DAT against Bromus sterilis", "setting": "Bromus sterilis; (Z61) post-emergence, g of a.i./ha: 1, 270, 90, 1 + 270, 1 + 90, 270 g of a.i./ha", "value": 20, "unit": "%"},
      {"measurement": "Herbicidal action 28 DAT against Bromus sterilis", "setting": "Bromus sterilis; (Z119) post-emergence, g of a.i./ha: 1, 270, 1 + 270", "value": 0, "unit": "%"},
      {"measurement": "Herbicidal action 14 DAT against Bromus sterilis", "setting": "Bromus sterilis; (Z119) post-emergence, g of a.i./ha: 1, 270, 90, 1 + 270, 1 + 90", "value": 5, "unit": "%"},
      {"measurement": "Herbicidal action 28 DAT against Bromus sterilis", "setting": "Bromus sterilis; (Z148) post-emergence, g of a.i./ha: 1, 270, 90, 30, 1 + 270, 1 + 90, 1 + 30", "value": 0, "unit": "%"},
      {"measurement": "Herbicidal action 14 DAT against Bromus sterilis", "setting": "Bromus sterilis; (Z148) post-emergence, g of a.i./ha: 4, 1, 270, 90, 30, 4 + 270, 4 + 90, 4 + 30, 1 + 30, 30 g of a.i./ha", "value": 0, "unit": "%"},
      {"measurement": "Herbicidal action 14 DAT against Bromus sterilis", "setting": "Bromus sterilis; (Z148) post-emergence, g of a.i./ha: 4, 1, 270, 90, 30, 4 + 270, 4 + 90, 4 + 30, 1 + 30, 270 g of a.i./ha", "value": 5, "unit": "%"}
    ]}
  ]
}
